# Data as given in patent EP2605769B1, “BENZOQUINONE DERIVATIVES FOR THE TREATMENT OF MITCHONDRIAL EYE DISEASES” (Santhera Pharmaceuticals (Schweiz) AG, priority 2010, dated 2012).
# Marks after values point to notes of the source that are not given here.
# Experiments:
# C57BL/6J mice = assay: Mouse model of intravitreal rotenone injection, histopathological analyses of retinal degeneration, first study; type: in vivo; details: ± SEM; for Gliosis: GFAP immunostaining RFU; for Gliosis / Retinal thickness: 7 days post-injection; for Glutamine-synthetase: GS immunostaining RFU; for Glutamine-synthetase / RGC number: 1 day post-injection
# Source text: This mouse model is used to assess the therapeutic potential of compounds in eye disorders characterized by mitochondrial dysfunction such as LHON, DOA, macular degeneration, retinopathy, and complex I deficiency. It is a widely accepted in vivo model based on single-eye intravitreal injection of the mitochondrial complex I inhibitor rotenone in the adult mouse. Intravitreal injection of rotenone induces neurotoxicity through mitochondrial complex I dysfunction in the retina which is the main molecular dysfunction […]. […] Histological analysis includes quantitative measurement of the retinal thickness (whole retina and individual layers), RGC apoptosis and cell death, oxidative stress, glutamine synthetase expression, and gliosis. The non-injected eye is used as a within subject, i.e. intraindividual, control. Male wild-type C57BL/6J mice (7 weeks old, about 25 g body weight) are individually housed in Makrolon type II cages with standard bedding and free access to food and water under a regular 12-hours light-dark cycle (8 a.m. to 8 p.m.). […] The injection is performed over a period of 2 min and the needle is kept in place for an additional 3 min, after which it is gently removed. Sterile surgical glue (Histoacryl, BRAUN/Aesculap AG, Germany) is used to seal the site of injection and a sterile antimicrobial ophtalmic ointment (Neosporin, GlaxoSmithKline, UK) is applied to the injected eye to avoid any infection. […] The eye balls are removed, retinas are dissected, fixed for an additional 2 h at 4°C, incubated in PB 0.1 M and 30% sucrose overnight, frozen in optimal cutting temperature compound (O.C.T., Tissue-Tek, Miles Laboratories, Elkhart, IN, USA), sliced at 14 µm, and collected onto glass slides for immunostaining. Immunostaining is performed accordingly to conventional method using multiple primary antibodies. Fluorescent-conjugated secondary antibodies and DAPI are used for visualization under a fluorescence microscope. All procedures are performed in accordance with the Swiss regulation and under a license approved by the "Kantonales Veterinäramt Basel-Land". Results: […] Table 5 In Table 5, the histological data are expressed as % of sham (DMSO) injected control ± SEM. […] IA 400 means a pretreatment with Compound IA at 400 mg/kg, similarily IA 2000 means a pretreatment with Compound IA at 2000 mg/kg. Statistical significance relative to vehicle + rotenone group is p ≤ 0.05 (*), p ≤ 0.01 (**). n is the number of retinas per group.
# [1] = Cytotoxicity assay (WST-1); type: cell-based, human; details: human, hepg2 cells, Hep-G2 cells, 24 hours exposure, read-out: TC50
# Source text: This assay investigates cytotoxicity which is defined as the cell-killing property of a chemical compound, independent from the mechanisms of cell death. The HepG2 hepatoblastoma cell line is one of the most common human cell lines for hepatotoxicity studies. […] This assay measures metabolic activity of living cells using the WST-1 cell proliferation reagent (Roche Diagnostics). The tetrazolium salt WST-1 is cleaved to water soluble formazan by cellular enzymes. An expansion in the number of viable cells results in an increase in the overall activity of mitochondrial dehydrogenases in the sample. This augmentation in enzyme activity leads to an increase in the amount of formazan dye formed, which directly correlates to the number of metabolically active cells in the culture. The formazan dye produced by metabolically active cells is directly quantified in a scanning multiwell spectrophotometer by measuring the absorbance of the formazan dye solution between 420 and 480 nm. Healthy HepG2 cells, when maintained in culture, continuously divide and multiply over time. A toxic chemical, regardless of site and mechanism of action, will interfere with this process and result in the reduction of the growth rate reflected in the cell number.
# Experimental Procedure: Hep-G2 cells are seeded into a 96-well microplate and maintained in culture for 24 hours. They are then exposed to the test compound over a range of eight concentrations. After 24 hours exposure, the cells are incubated in presence of reagent WST-1 for 30 min before measuring the absorbance of the formazan dye formed. Cytotoxicity is expressed as a concentration dependent reduction of the conversion formazan dye formation due to a decrease in cell proliferation as compared to untreated cells. The TC50 (Toxic Concentration 50%), is defined as the concentration of tested compound required to reduce the cellular viability by 50% relative to the control culture. The lower the TC50 value, the higher is the cytotoxic potential of the test compound. […]
# [2] = 400 mg/kg pretreatment 3 weeks + rotenone
# [3] = 2000 mg/kg pretreatment 3 weeks + rotenone
Compound,Gliosis (C57BL/6J mice; 400 mg/kg + rotenone),Glutamine-synthetase (C57BL/6J mice; 400 mg/kg + rotenone),RGC number (C57BL/6J mice; [2]),Retinal thickness (C57BL/6J mice; [2]),Gliosis (C57BL/6J mice; 2000 mg/kg + rotenone),Glutamine-synthetase (C57BL/6J mice; 2000 mg/kg + rotenone),RGC number (C57BL/6J mice; [3]),Retinal thickness (C57BL/6J mice; [3]),CC50 at 24 h [1] [µM]
"COC1=C(OC)C(=O)C(CCCCCCCCCCO)=C(C)C1=O [Compound IA, Idebenone]",112.7 ± 11.9 * (n=3) % of sham (DMSO) injected control,98.5 ± 1.9 (n=5) % of sham (DMSO) injected control,94.6 ± 3.2 ** (n=3) % of sham (DMSO) injected control,84.3 ± 2.9 ** (n=3) % of sham (DMSO) injected control,134.7 ± 10.7* (n=3) % of sham (DMSO) injected control,99 ± 2.9 * (n=6) % of sham (DMSO) injected control,101.3 ± 11.3 (n=3) % of sham (DMSO) injected control,76.9 ± 10.1 (n=4) % of sham (DMSO) injected control,–
COC1=C(OC)C(=O)C(CCCCCCCCCC(C)(C)O)=C(C)C1=O [Compound IC],–,–,–,–,–,–,–,–,71.9
